For the assay, the target named is T1, Signal peptide peptidase-like 2A (Homo sapiens, UniProt Q8TCT8).
T1 sequence (Q8TCT8 whole entry): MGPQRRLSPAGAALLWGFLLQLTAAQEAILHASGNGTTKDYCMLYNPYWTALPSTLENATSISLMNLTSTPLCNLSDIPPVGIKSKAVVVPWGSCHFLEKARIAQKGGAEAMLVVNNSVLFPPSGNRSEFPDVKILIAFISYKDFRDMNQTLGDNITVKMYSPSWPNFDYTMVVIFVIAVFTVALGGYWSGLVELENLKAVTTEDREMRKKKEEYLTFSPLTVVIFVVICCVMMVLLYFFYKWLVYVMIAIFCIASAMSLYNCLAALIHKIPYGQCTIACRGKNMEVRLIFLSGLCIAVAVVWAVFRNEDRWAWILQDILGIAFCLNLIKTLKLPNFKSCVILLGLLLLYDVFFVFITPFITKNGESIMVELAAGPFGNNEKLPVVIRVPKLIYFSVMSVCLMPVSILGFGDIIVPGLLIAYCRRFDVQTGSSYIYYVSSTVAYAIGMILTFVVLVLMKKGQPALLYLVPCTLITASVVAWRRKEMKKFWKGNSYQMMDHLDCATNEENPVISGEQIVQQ
As to the kind of experiment: Inhibition of human SPPL2A expressed in human U2OS cells assessed as nuclear mask transferring to EGFP channel using EGFP-labeled TNFalpha (aa1-76) NTF as substrate and measured after 24 hrs by Hoechst staining based translocation assay. The assay is classed as cell-based.

Consider `CC(C)C(=O)Nc1nc(Cl)c(NC(=O)C[C@@H](C)C(=O)N[C@@H]2C(=O)N3CCCN3Cc3ccccc32)s1`, for which the IC50 (in general, the midpoint of a concentration-inhibition curve) came out at 1 nM.
